In patent US12281102B2, “Inhibitors of APOL1 and methods of using same” (Vertex Pharmaceuticals Incorporated, priority 2020, dated 2025):

Molecular target: T1, G1 APOL1 (Homo sapiens, UniProt O14791, I384M/S342G)
T1 construct: expressed in transfected cells
T1 sequence (O14791 28-398 S342G/I384M): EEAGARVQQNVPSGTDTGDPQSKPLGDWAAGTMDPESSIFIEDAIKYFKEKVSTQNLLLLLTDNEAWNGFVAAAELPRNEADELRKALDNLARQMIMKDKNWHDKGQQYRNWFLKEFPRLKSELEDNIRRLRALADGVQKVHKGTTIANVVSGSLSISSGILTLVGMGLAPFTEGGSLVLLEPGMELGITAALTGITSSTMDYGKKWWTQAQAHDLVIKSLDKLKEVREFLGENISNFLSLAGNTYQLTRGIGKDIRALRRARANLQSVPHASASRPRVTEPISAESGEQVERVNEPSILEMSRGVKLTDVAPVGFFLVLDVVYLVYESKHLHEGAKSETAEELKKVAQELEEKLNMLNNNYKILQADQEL
Assay: Acute APOL1 Thallium Assay with inducible stable clones of HEK 293 cells
Assay type: cell-based
Settings: HEK 293 T-Rex inducible stable clone expressing G1 APOL1; read-out: Thallium Assay (IC50)
From the text: Acute APOL1 Thallium Assay with Inducible Stable Clones of HEK 293 Cells
Apolipoprotein L1 (APOL1) proteins form potassium-permeable cation pores in the plasma membrane. APOL1 risk variants (G1 and G2) induce greater potassium flux than G0 in HEK293 cells. This assay exploits the permeability of thallium (T1+) through ligand-gated potassium channels. The dye produces a bright fluorescent signal upon binding to T1+ conducted through potassium channels. The intensity of the T1+ signal is proportional to the number of potassium channels in the open state. Therefore, it provides a functional indication of the potassium channel activities. During the initial dye-loading step, the T1+ indicator dye as an acetoxymethyl (AM) ester enters the cells through passive diffusion. Cytoplasm esterases cleave the AM ester and relieve its active thallium-sensitive form. The cells are then stimulated with T1+. The increase of fluorescence in the assay represents the influx of T1+ into the cell specifically through the potassium channel (i.e. through APOL1 pores), providing a functional measurement of potassium channel/pore activity. The Thallium assay is conducted with cells expressing G1 APOL1.
APOL1 Cell Line (HEK T-Rex Stable Inducible Cell Line)
• HEK T-Rex System • Tetracycline (Tet) inducible mammalian expression system. • Stably express the Tet repressor to regulate transcription. • Expression under the full-length CMV promoter. • APOL1 stable inducible cell line Clone used: G1 DC3.25 Tissue Culture Media Cell Culture Medium • DMEM+10% FBS+P/S+5 μg/mL blasticidin+1 μg/mL puromycin. • 500 mL DMEM+55 mL FBS+5 mL P/S+280 μL blasticidin S HCl (10 mg/mL)+56 μL puromycin (10 mg/mL). Cell Assay Medium • DMEM with 2% FBS+penicillin streptomycin. Reagents:
Instruments and Equipment • Nuaire cell culture hood, Cat. No. 540-600 • 37° C./5% CO2 incubator link to robotic arm, Liconic: STX110 • Molecular Devices FLIPR^Tetra High throughput cellular screening system, Cat. No. FT0324, Molecular Devices • ThermoFisher MultiDrop 384, Cat. No. 5840300 • Biotek Microfill, Cat. No. ASF1000A-4145 • BioRad TC10 cell counter, Cat. No. 145-0010 Assay Procedures Cells Scaled Up from Frozen Vials • APOL1 G1 3.25 (HEK293 T-Rex) frozen vials: 5 million cells per vial • Step 1, Day 1: Defrost frozen vial into T-225. • Step 2, Day 5: (when 85% confluent): Split one T-225 at 3×10^6 cells per flask. • Step 3, Day 8: Splits cells to set up for the assay plates as described below. Cell Culture
T-Rex APOL1 HEK cells are split twice per week to keep the confluence state below 85% of the culture flask surface area. Cells can be kept until passage 25.
• DMEM high glucose+10% FBS, +P/S, +5 μg/mL blasticidin, +1 μg/mL puromycin. • 500 mL DMEM, +55 mL FBS, +5 mL P/S, +280 μL blasticidin 10 mg/mL, +56 μL Puromycin 10 mg/mL. Assay Media • Opti-MEM reduced serum medium from Invitrogen. Day 1 Preparation of Cell Assay Plates • Culture medium is removed from the x cm^2 T-flask by aspiration. • The cell monolayer is rinsed with PBS 1× at room temperature. PBS is removed by aspiration. • Cells are trypsinized using Trypsin. • The flasks are incubated at room temperature for 2-3 minutes. • Complete DMEM medium is then added. Cell suspension is then transferred to a 50 mL Falcon polypropylene tube. • Cells are then counted using a BioRad TC10 cell counter and the required amount of cells are centrifuged at 1200 RPM for 5 minutes. Required amount is 1.3×10^6 cells/mL APOL1 T-Rex HEK cells. • The pellet is suspended in the assay medium. • Using the MultiDrop, add 20 μL to each well (corresponds to 26000 cells total per well) of a 384-well black, transparent, flat bottom Poly-D coated plate. • Tetracycline as prepared in the following section is added to the cells before plating to induce APOL1 expression. • Plates are left at room temperature for 20 to 30 minutes before incubation at 37° C. and 5% CO2. […]

Row | Compound | IC50 [nM]
1 | N#CCC(=O)NC[C@H]1C[C@@H](c2c(-c3ccc(F)cc3)[nH]c3c(F)cc(F)cc32)C1 [Compound 230] | > 1000
2 | CC(C(=O)N[C@H]1C[C@H](c2c(-c3ccc(F)cc3)[nH]c3c(F)cc(F)cc32)C1)N(C)C (mixture of isomers) [Compound 111] | > 1000
3 | CN(C1COC1)C1CC(c2c(-c3ccc(F)cc3)[nH]c3c(F)cc(F)cc23)C1 (stereo not drawn) [Compound 24] | > 1000
4 | Cc1nccn1CC(=O)NC[C@H]1C[C@@H](c2c(-c3ccc(F)cc3)[nH]c3c(F)cc(F)cc32)C1 [Compound 321] | > 1000
5 | O=C(CCN1CCCC1)N[C@H]1C[C@H](c2c(-c3ccc(F)cc3)[nH]c3c(F)cc(F)cc32)C1 [Compound 109] | > 1000
6 | C[C@H](O)[C@H](CO)NS(=O)(=O)NC[C@H]1C[C@H](c2c(-c3ccc(F)cc3)[nH]c3c(F)cc(F)cc32)C1 [Compound 360] | > 1000
7 | O=C(CCN1CCCCC1)N[C@H]1C[C@H](c2c(-c3ccc(F)cc3)[nH]c3c(F)cc(F)cc32)C1 [Compound 124] | > 1000
8 | CC(=O)NCCNC1CC(c2c(-c3ccc(F)cc3)[nH]c3c(F)cc(F)cc23)C1 (stereo not drawn) [Compound 23] | > 1000
9 | Cn1ccnc1S(=O)(=O)N[C@H]1C[C@@H](c2c(-c3ccc(F)cc3)[nH]c3c(F)cc(F)cc32)C1 [Compound 85] | > 1000
10 | CS(=O)(=O)NCC(=O)N[C@H]1C[C@H](c2c(-c3ccc(F)cc3)[nH]c3c(F)cc(F)cc32)C1 [Compound 107] | > 1000
11 | O=C(NC1CC(c2c(-c3ccc(F)cc3)[nH]c3c(F)cc(F)cc23)C1)OCc1ccccc1 (stereo not drawn) [Compound 13, benzyl N-[3-[5,7-difluoro-2-(4-fluorophenyl)-1H-indol-3-yl]cyclobutyl]carbamate] | > 1000
12 | CC[C@@H](NC(=O)OC(C)(C)C)C(=O)NC[C@H]1C[C@H](c2c(-c3ccc(F)cc3)[nH]c3c(F)cc(F)cc32)C1 [Compound 331] | > 1000
13 | CC(F)(F)C(=O)NC[C@H]1C[C@@H](c2c(-c3ccc(F)cc3)[nH]c3c(F)cc(F)cc32)C1 [Compound 266] | > 1000
14 | O=S(=O)(N[C@H]1C[C@@H](c2c(-c3ccc(F)cc3)[nH]c3c(F)cc(F)cc32)C1)C1CCOCC1 [Compound 86] | > 1000
15 | CN(CC(O)CO)S(=O)(=O)NC[C@H]1C[C@H](c2c(-c3ccc(F)cc3)[nH]c3c(F)cc(F)cc32)C1 (stereo partly drawn) [Compound 361] | > 1000

Other lines, results leading:

Row | IC50 [nM] | Compound
16 | > 1000 | CS(=O)(=O)CCC(=O)NC[C@H]1C[C@@H](c2c(-c3ccc(F)cc3)[nH]c3c(F)cc(F)cc32)C1 [Compound 262]
17 | > 1000 | CC(C)(C)OC(=O)N1C[C@@H](O)C[C@H]1C(=O)NC[C@H]1C[C@H](c2c(-c3ccc(F)cc3)[nH]c3c(F)cc(F)cc32)C1 [Compound 252]
18 | 250 to 1000 | NS(=O)(=O)CCC(=O)N[C@H]1C[C@H](c2c(-c3ccc(F)cc3)[nH]c3c(F)cc(F)cc32)C1 [Compound 116]
19 | > 1000 | CCS(=O)(=O)NCC(=O)NC[C@H]1C[C@@H](c2c(-c3ccc(F)cc3)[nH]c3c(F)cc(F)cc32)C1 [Compound 263]
20 | 250 to 1000 | O=C(NC[C@H]1C[C@@H](c2c(-c3ccc(F)cc3)[nH]c3c(F)cc(F)cc32)C1)C1COC1 [Compound 226]
21 | > 1000 | O=C1CCC(CNS(=O)(=O)NC[C@H]2C[C@H](c3c(-c4ccc(F)cc4)[nH]c4c(F)cc(F)cc43)C2)N1 (stereo partly drawn) [Compound 340]
22 | > 1000 | CC(C)(C)OC(=O)NC1(C(=O)NC[C@H]2C[C@H](c3c(-c4ccc(F)cc4)[nH]c4c(F)cc(F)cc43)C2)COC1 [Compound 311]
23 | > 1000 | CS(=O)(=O)NCC(=O)NC[C@H]1C[C@@H](c2c(-c3ccc(F)cc3)[nH]c3c(F)cc(F)cc32)C1 [Compound 271]
24 | 250 to 1000 | CC(=O)NS(=O)(=O)NC[C@H]1C[C@H](c2c(-c3ccc(F)cc3)[nH]c3c(F)cc(F)cc32)C1 [Compound 371]
25 | > 1000 | Cn1nccc1CC(=O)N[C@H]1C[C@@H](c2c(-c3ccc(F)cc3)[nH]c3c(F)cc(F)cc32)C1 [Compound 49]
26 | > 1000 | O=C1CC(C(=O)NC[C@H]2C[C@H](c3c(-c4ccc(F)cc4)[nH]c4c(F)cc(F)cc43)C2)CN1 (stereo partly drawn) [Compound 273]
27 | 250 to 1000 | NC12CC(NCC3CC(c4c(-c5ccc(F)cc5)[nH]c5c(F)cc(F)cc45)C3)(C1)C2 (stereo not drawn) [Compound 384]
28 | 250 to 1000 | O=C(N[C@H]1C[C@@H](c2c(-c3ccc(F)cc3)[nH]c3c(F)cc(F)cc32)C1)C1(O)CC1 [Compound 76]
29 | < 250 | N[C@H]1C[C@@H](Cc2c(-c3ccc(F)cc3)[nH]c3c(F)cc(F)cc23)C1 [Compound 158, cis-3-[[5,7-difluoro-2-(4-fluorophenyl)-1H-indol-3-yl]methyl]cyclobutanamine]
30 | < 250 | CC(=O)NC[C@H]1C[C@H](c2c(-c3ccc(F)cc3)[nH]c3c(F)cc(F)cc32)C1 [Compound 195]
31 | < 250 | C[C@H](N)C(=O)NC[C@H]1C[C@H](c2c(-c3ccc(F)cc3)[nH]c3c(F)cc(F)cc32)C1 [Compound 189, (S)-2-amino-N-(((1r,3S)-3-(5,7-difluoro-2-(4-fluorophenyl)-1H-indol-3-yl)cyclobutyl)methyl)propanamide]
32 | 250 to 1000 | CC1(C(=O)N[C@H]2C[C@H](c3c(-c4ccc(F)cc4)[nH]c4c(F)cc(F)cc43)C2)CC(=O)C1 [Compound 94]
33 | 250 to 1000 | O=C(CC(=O)N1CCOCC1)N[C@H]1C[C@@H](c2c(-c3ccc(F)cc3)[nH]c3c(F)cc(F)cc32)C1 [Compound 56]
34 | < 250 | N[C@H](C(=O)NC[C@H]1C[C@H](c2c(-c3ccc(F)cc3)[nH]c3c(F)cc(F)cc32)C1)C1CC1 [Compound 196]
35 | 250 to 1000 | O=S(=O)(N[C@H]1C[C@H](c2c(-c3ccc(F)cc3)[nH]c3c(F)cc(F)cc32)C1)c1cn[nH]c1 [Compound 145, N-[(1r,3r)-3-[5,7-difluoro-2-(4-fluorophenyl)-1H-indol-3-yl]cyclobutyl]-1H-pyrazole-4-sulfonamide]
36 | 250 to 1000 | O=C(NC[C@H]1C[C@H](c2c(-c3ccc(F)cc3)[nH]c3c(F)cc(F)cc32)C1)C1CC(F)(F)CN1 (stereo partly drawn) [Compound 223]
37 | 250 to 1000 | CC(C)(O)C(=O)N[C@H]1C[C@@H](c2c(-c3ccc(F)cc3)[nH]c3c(F)cc(F)cc32)C1 [Compound 74]
38 | 250 to 1000 | NC(=O)C(=O)NC[C@H]1C[C@H](c2c(-c3ccc(F)cc3)[nH]c3c(F)cc(F)cc32)C1 [Compound 451]

Same assay, conditions: Thallium Assay (IC50), HEK 293 T-Rex inducible stable clone expressing G1 APOL1

Row | Compound | IC50 [nM]
39 | N[C@H]1C[C@@H](c2c(-c3ccc(F)cc3)[nH]c3c(F)cc(F)cc32)C1 [Compound 28, (1s,3s)-3-(5,7-difluoro-2-(4-fluorophenyl)-1H-indol-3-yl)cyclobutan-1-amine] | < 250
